“And” between values parts separate entries of the source, which are not always exact repeats. Equal entries are not always repeated.
Columns and labels:
[1] = test system: Human KB-31 epidermoid carcinoma cells; test: Proliferation inhibition of KB-31 cells (methylene blue staining); format: cell-based; details: KB-31 cell line, four days incubation with compound, repeated lines are separate determinations
Experimental: (§1) Stock solutions of the test compound of formula I 10 mM) in DMSO are prepared and stored at −20° C. Human KB-31 and (multidrug-resistant, P-gp 170 overexpressing) KB-8511 epidermoid carcinoma cells are from Dr. M. Baker, Roswell Park Memorial Institute (Buffalo, N.Y., USA) (for description see also Akiyama et al., Somat. Cell. Mol. Genetics 11, 117-126 (1985) und Fojo A., et al., Cancer Res. 45, 3002-3007 (1985)—KB-31 und KB-851 I both are derivatives of the KB-cell line (American Type Culture Collection) and are human epidermoid carcinoma cells. KB-31 cells can be cultivated in mono-layers using calf serum (M.A. Bio-products), L-glutamine (Flow), penicillin (50 Units/ml) und streptomycin (50 μg/ml (Flow); they then grow with a doubling rate of about 22 hours, and the relative efficiency of plating them out lies at about 60%. […] The cells are incubated at 37° C. in an incubator with 5% V/V CO2 and at 80% relative atmospheric humidity in MEM Alpha-medium which contains ribonucleosides und desoxyribonucleosides (Gibco BRL), complemented with 10 IU Penicillin, 10 μg/ml Streptomycin and 5% fetal calf serum. The cells are spread in an amount of 1.5×10^3 cells/well in 96-well-microtiter plates and incubated overnight. Serial dilutions of the test compounds in culture medium are added at day 1. The plates are then incubated for an additional period of four days, after which the cells are fixed using 3.3% v/v glutaraldehyde washed with water and finally stained with 0.05% w/v methylene blue. After washing again, the stain is eluted with 3% HCl and the optical density at 665 nm is measured with a SpectraMax 340 (Molecular Devices, Sunnyvale, Calif.). IC50-values are determined by mathematically fitting the data to curves using the SoftPro2.0 program (Molecular Devices, Sunnyvale, Calif.) and the formula […]/[(OD control)−(OD start)]×100.
(§2) The IC50 is defined as the concentration of a test compound at the end of the incubation period that leads to 50% of the number of cells in comparison to controls without test compound (concentration at halfmaximal inhibition of cell growth).
(§3) Proliferation inhibition (IC50) of epothilone derivatives (Examples 1-16) towards KB-31 and KB-8511 cell lines. Method as described above.

[2] = test system: (multidrug-resistant, P-gp 170 overexpressing) KB-8511 epidermoid carcinoma cells; test: Proliferation inhibition of KB-8511 cells (methylene blue staining); format: cell-based, human; details: KB-8511 cell line (multidrug-resistant, P-gp 170 overexpressing), four days incubation with compound, repeated lines are separate determinations
Experimental: as §1, §2, §3

| SMILES | IC50 ([1]; Homo sapiens, KB 3-1, 96 h) | IC50 ([2]; Homo sapiens, 96 h) | IC50 [1] | IC50 [2] |
| --- | --- | --- | --- | --- |
| Cc1nc2cc([C@@H]3C[C@@H]4C[C@@H]4CCC[C@H](C)[C@H](O)[C@@H](C)C(=O)C(C)(C)[C@@H](O)CC(=O)O3)ccc2n1C (stereo in doubt) [Example 15, 3-(1,2-Dimethyl-1H-benzoimidazol-5-yl)-7,11-dihydroxy-8,8,10,12-tetramethyl-4-oxa-bicyclo[14.1.0]heptadecane-5,9-dione] | 0.467 nM | 1.01 nM |  |  |
| C/C1=C/C[C@@H](/C(C)=C/c2csc(C)n2)OC(=O)CCC(C)(C)C(=O)[C@H](C)[C@@H](O)[C@@H](C)CCC1 [Example 1, (Z)-(7R,8S,9S,16S)-8-Hydroxy-5,5,7,9,13-pentamethyl-16-[(E)-1-methyl-2-(2-methyl-thiazol-4-yl)-vinyl]-oxacyclohexadec-13-ene-2,6-dione] | 106 nM | 75.4 nM |  |  |
| C/C(=C\c1csc(C)n1)[C@@H]1C[C@@H]2O[C@]2(C)CCC[C@H](C)[C@H](O)[C@@H](C)C(=O)C(C)(C)CCC(=O)O1 [Example 2, (1S,3S,10R,11S,12S,16R)-11-Hydroxy-8,8,10,12,16-pentamethyl-3-[(E)-1-methyl-2-(2-methyl-thiazol-4-yl)-vinyl]-4,17-dioxa-bicyclo[14.1.0]heptadecane-5,9-dione] | 5.12 nM | 2.18 nM |  |  |
| Cc1nc2cc([C@@H]3C/C=C\CCC[C@H](C)[C@H](O)[C@@H](C)C(=O)C(C)(C)CCC(=O)O3)ccc2n1C [Example 3, 16-(1,2-Dimethyl-1H-benzoimidazol-5-yl)-8-hydroxy-5,5,7,9-tetramethyl-oxacyclohexadec-13-ene-2,6-dione] | 54.9 nM | 50.4 nM | 62 nM | 62.3 nM |
| Cc1nc2cc([C@@H]3C[C@@H]4O[C@@H]4CCC[C@H](C)[C@H](O)[C@@H](C)C(=O)C(C)(C)CCC(=O)O3)ccc2n1C [Example 4, 3-(1,2-Dimethyl-1H-benzoimidazol-5-yl)-11-hydroxy-8,8,10,12-tetramethyl-4,17-dioxa-bicyclo[14.1.0]heptadecane-5,9-dione] | 6.56 nM | 36.6 nM | 7.95 nM and 7.65 nM | 39.2 nM and 37.1 nM |
| Cc1nc2cc([C@@H]3C[C@@H]4O[C@]4(C)CCC[C@H](C)[C@H](O)[C@@H](C)C(=O)C(C)(C)CCC(=O)O3)ccc2n1C [Example 6, (1S,3S,10R,11S,12S,16R)-3-(1,2-Dimethyl-1H-benzoimidazol-5-yl)-11-hydroxy-8,8,10,12,16-pentamethyl-4,17-dioxa-bicyclo[14.1.0]heptadecane-5,9-dione] |  | < 2 nM |  | 1.61 nM |
| Cc1nc2cc([C@@H]3C/C=C/CCC[C@H](C)[C@H](O)[C@@H](C)C(=O)C(C)(C)CCC(=O)O3)ccc2n1C [Example 7, (E)-(7R,8S,9S,16S)-16-(1,2-Dimethyl-1H-benzoimidazol-5-yl)-8-hydroxy-5,5,7,9-tetramethyl-oxacyclohexadec-13-ene-2,6-dione] | 39.1 nM | 50.2 nM | 41.9 nM | 49.9 nM |
| Cc1nc2cc([C@@H]3C[C@@H]4O[C@H]4CCC[C@H](C)[C@H](O)[C@@H](C)C(=O)C(C)(C)CCC(=O)O3)ccc2n1C [Example 8, (1S,3S,10R,11S,12S,16S)-3-(1,2-Dimethyl-1H-benzoimidazol-5-yl)-11-hydroxy-8,8,10,12-tetramethyl-4,17-dioxa-bicyclo[14.1.0]heptadecane-5,9-dione] | 2.76 nM | 5.83 nM |  |  |
| Cc1nc2cc([C@@H]3C/C=C/CCC[C@H](C)[C@H](O)[C@@H](C)C(=O)C(C)(C)[C@@H](O)CC(=O)O3)ccc2n1C [Example 11, (E)-(4S,7R,8S,9S,16S)-16-(1,2-Dimethyl-1H-benzoimidazol-5-yl)-4,8-dihydroxy-5,5,7,9-tetramethyl-oxacyclohexadec-13-ene-2,6-dione] |  | 25.1 nM |  | 36.6 nM and 37 nM |
| Cc1nc2cc([C@@H]3C[C@@H]4O[C@H]4CCC[C@H](C)[C@H](O)[C@@H](C)C(=O)C(C)(C)[C@@H](O)CC(=O)O3)ccc2n1C [Example 12, (1S,3S,7S,10R,11S,12S,16S)-3-(1,2-Dimethyl-1H-benzoimidazol-5-yl)-7,11-dihydroxy-8,8,10,12-tetramethyl-4,17-dioxa-bicyclo[14.1.0]heptadecane-5,9-dione] | 0.27 nM | 1.45 nM | 0.24 nM and 0.228 nM | 1.67 nM and 0.96 nM |
| Cc1nc2cc([C@@H]3C/C=C/CCC[C@H](C)[C@H](O)[C@@H](C)C(=O)C(C)(C)/C=C/C(=O)O3)ccc2n1C [Example 13, (3E,13E)-(7R,8S,9S,16S)-16-(1,2-Dimethyl-1H-benzoimidazol-5-yl)-8-hydroxy-5,5,7,9-tetramethyl-oxacyclohexadeca-3,13-diene-2,6-dione] | 144 nM | 74.1 nM | 138 nM and 152 nM | 68.8 nM and 73.5 nM |
| Cc1nc2cc([C@@H]3C[C@@H]4O[C@H]4CCC[C@H](C)[C@H](O)[C@@H](C)C(=O)C(C)(C)/C=C/C(=O)O3)ccc2n1C [Example 14, (E)-(1S,3S,10R,11S,12S,16S)-3-(1,2-Dimethyl-1H-benzoimidazol-5-yl)-11-hydroxy-8,8,10,12-tetramethyl-4,17-dioxa-bicyclo[14.1.0]heptadec-6-ene-5,9-dione] | 5 nM | 12.4 nM | 3.5 nM | 9.92 nM |
| Cc1nc2cc([C@@H]3C[C@@H]4C[C@H]4CCC[C@H](C)[C@H](O)[C@@H](C)C(=O)C(C)(C)[C@@H](O)CC(=O)O3)ccc2n1C [Example 16, (1S,3S,7S,10R,11S,12S,16R)-3-(1,2-Dimethyl-1H-benzoimidazol-5-yl)-7,11-dihydroxy-8,8,10,12-tetramethyl-4-oxa-bicyclo[14.1.0]heptadecane-5,9-dione] | 0.149 nM | 0.11 nM |  |  |

Source: patent publication US7825141B2, “Epothilone derivatives” (Novartis AG, priority 2004, dated 2010)
